Measurements published in ChEMBL document CHEMBL1287784, “A facile 1,3-dipolar cycloaddition of azomethine ylides to 2-arylidene-1,3-indanediones: synthesis of dispiro-oxindolylpyrrolothiazoles and their antimycobacterial evaluation” (2010).
Values after ≈ are worked out from the molar mass of the structure shown.

These molecules were tested on Mycobacterium tuberculosis (assay: Antimycobacterial activity against Mycobacterium tuberculosis H37Rv by agar dilution method).
Format: functional
`O=C1c2ccccc2C(=O)C12[C@@H](c1ccccc1)[C@@H]1CSCN1[C@@]21C(=O)Nc2ccc([N+](=O)[O-])cc21` gave an MIC of 12.6 µM (≈ 6.27 µg/mL).
With `COc1cc([C@H]2[C@@H]3CSCN3[C@@]3(C(=O)Nc4ccc(Cl)cc43)C23C(=O)c2ccccc2C3=O)cc(OC)c1OC` the MIC was 21.7 µM (≈ 12.5 µg/mL).
`COc1ccc([C@H]2[C@@H]3CSCN3[C@@]3(C(=O)Nc4ccc([N+](=O)[O-])cc43)C23C(=O)c2ccccc2C3=O)cc1OC` showed an MIC of 11.2 µM (≈ 6.24 µg/mL).
Molecule `COc1cc([C@H]2[C@@H]3CSCN3[C@@]3(C(=O)Nc4ccc([N+](=O)[O-])cc43)C23C(=O)c2ccccc2C3=O)cc(OC)c1OC` has an MIC of 10.6 µM (≈ 6.23 µg/mL).
`COc1cc([C@H]2[C@@H]3CSCN3[C@@]3(C(=O)Nc4ccccc43)C23C(=O)c2ccccc2C3=O)cc(OC)c1OC` was tested, and the MIC was greater than 46.1 µM.
With `O=C1c2ccccc2C(=O)C12[C@@H](c1ccccc1)[C@@H]1CSCN1[C@@]21C(=O)Nc2ccc(Cl)cc21` the MIC was 25.7 µM (≈ 12.5 µg/mL).
In the case of `O=C1c2ccccc2C(=O)C12[C@@H](c1ccc(Cl)cc1)[C@@H]1CSCN1[C@@]21C(=O)Nc2ccc(Cl)cc21`, the MIC was 2.99 µM (≈ 1.56 µg/mL).
`CC(C)c1ccc([C@H]2[C@@H]3CSCN3[C@@]3(C(=O)Nc4ccc(Cl)cc43)C23C(=O)c2ccccc2C3=O)cc1` gave an MIC of 11.8 µM (≈ 6.24 µg/mL).
`COc1ccc([C@H]2[C@@H]3CSCN3[C@@]3(C(=O)Nc4ccc(Cl)cc43)C23C(=O)c2ccccc2C3=O)cc1` was tested, and the MIC was 24.2 µM (≈ 12.5 µg/mL).
Molecule `O=C1c2ccccc2C(=O)C12[C@@H](c1ccccc1Br)[C@@H]1CSCN1[C@@]21C(=O)Nc2ccc(Cl)cc21` has an MIC of 2.8 µM (≈ 1.58 µg/mL).
`COc1ccc([C@H]2[C@@H]3CSCN3[C@@]3(C(=O)Nc4ccc(Cl)cc43)C23C(=O)c2ccccc2C3=O)cc1OC` was tested, and the MIC was 22.9 µM (≈ 12.5 µg/mL).
`O=C1c2ccccc2C(=O)C12[C@@H](c1ccc(Cl)cc1)[C@@H]1CSCN1[C@@]21C(=O)Nc2ccc([N+](=O)[O-])cc21` gave an MIC of 2.9 µM (≈ 1.54 µg/mL).
In the case of `O=C1c2ccccc2C(=O)C12[C@@H](c1ccc(Br)cc1)[C@@H]1CSCN1[C@@]21C(=O)Nc2ccc([N+](=O)[O-])cc21`, the MIC was 1.4 µM (≈ 0.807 µg/mL).
Molecule `COc1ccc([C@H]2[C@@H]3CSCN3[C@@]3(C(=O)Nc4ccc([N+](=O)[O-])cc43)C23C(=O)c2ccccc2C3=O)cc1` has an MIC of 11.9 µM (≈ 6.28 µg/mL).
Work on `O=C1c2ccccc2C(=O)C12[C@@H](c1ccccc1Cl)[C@@H]1CSCN1[C@@]21C(=O)Nc2ccc([N+](=O)[O-])cc21` yielded an MIC of 5.9 µM (≈ 3.14 µg/mL).
Work on `O=C1c2ccccc2C(=O)C12[C@@H](c1ccccc1Cl)[C@@H]1CSCN1[C@@]21C(=O)Nc2ccc(Cl)cc21` yielded an MIC of 6 µM (≈ 3.13 µg/mL).
`O=C1c2ccccc2C(=O)C12[C@@H](c1ccccc1)[C@@H]1CSCN1[C@@]21C(=O)Nc2ccccc21` showed an MIC greater than 55.2 µM.
`O=C1c2ccccc2C(=O)C12[C@@H](c1cccc(F)c1)[C@@H]1CSCN1[C@@]21C(=O)Nc2ccc([N+](=O)[O-])cc21` gave an MIC of 3 µM (≈ 1.55 µg/mL).
`O=C1c2ccccc2C(=O)C12[C@@H](c1ccc(Cl)cc1)[C@@H]1CSCN1[C@@]21C(=O)Nc2ccccc21` gave an MIC of 25.7 µM (≈ 12.5 µg/mL).
With `CC(C)c1ccc([C@H]2[C@@H]3CSCN3[C@@]3(C(=O)Nc4ccccc43)C23C(=O)c2ccccc2C3=O)cc1` the MIC was 25.3 µM (≈ 12.5 µg/mL).
With `O=C1c2ccccc2C(=O)C12[C@@H](c1cccc(Br)c1)[C@@H]1CSCN1[C@@]21C(=O)Nc2ccc([N+](=O)[O-])cc21` the MIC was 2.7 µM (≈ 1.56 µg/mL).
Work on `COc1ccc([C@H]2[C@@H]3CSCN3[C@@]3(C(=O)Nc4ccccc43)C23C(=O)c2ccccc2C3=O)cc1` yielded an MIC greater than 51.8 µM.
In the case of `Cc1ccccc1[C@H]1[C@@H]2CSCN2[C@@]2(C(=O)Nc3ccccc32)C12C(=O)c1ccccc1C2=O`, the MIC was 53.6 µM (≈ 25 µg/mL).
Work on `O=C1Nc2ccc([N+](=O)[O-])cc2[C@]12N1CSC[C@H]1[C@H](c1cccc(Cl)c1Cl)[C@]21Cc2ccccc2C1=O` yielded an MIC of 2.8 µM (≈ 1.55 µg/mL).
Work on `O=C1c2ccccc2C(=O)C12[C@@H](c1ccccc1Cl)[C@@H]1CSCN1[C@@]21C(=O)Nc2ccccc21` yielded an MIC of 25.7 µM (≈ 12.5 µg/mL).
Molecule `O=C1c2ccccc2C(=O)C12[C@@H](c1ccccc1Br)[C@@H]1CSCN1[C@@]21C(=O)Nc2ccccc21` has an MIC of 11.8 µM (≈ 6.27 µg/mL).
`O=C1c2ccccc2C(=O)C12[C@@H](c1cccc([N+](=O)[O-])c1)[C@@H]1CSCN1[C@@]21C(=O)Nc2ccccc21` gave an MIC of 25.1 µM (≈ 12.5 µg/mL).
`COc1ccc([C@H]2[C@@H]3CSCN3[C@@]3(C(=O)Nc4ccccc43)C23C(=O)c2ccccc2C3=O)cc1OC` showed an MIC greater than 48.8 µM.
For `CC[C@@H](CO)NCCN[C@@H](CC)CO` [ETHAMBUTOL], the MIC was 7.6 µM (≈ 1.55 µg/mL).
In the case of `NNC(=O)c1ccncc1` [ISONIAZID], the MIC was 0.4 µM (≈ 0.0549 µg/mL).
With `CO[C@H]1/C=C/O[C@@]2(C)Oc3c(C)c(O)c4c(O)c(c(/C=N/N5CCN(C)CC5)c(O)c4c3C2=O)NC(=O)/C(C)=C\C=C\[C@H](C)[C@H](O)[C@@H](C)[C@@H](O)[C@@H](C)[C@H](OC(C)=O)[C@@H]1C` [RIFAMPIN] the MIC was 0.1 µM (≈ 0.0823 µg/mL).
